# How the values were obtained:
# Format in all cases: in vivo, human
# [1] = system: impulsive aggression in ADHD patients; assay: Phase IIb study, R-MOAS score change from baseline
# Method: (§1) A Phase IIb study was conducted for the treatment of impulsive aggression in Attention Deficit and Hyperactivity Disorder (ADHD) patients with a pharmaceutical preparation of molindone. The study was a multi-center randomized, double-blind, placebo controlled clinical trial in children 6 to 12 diagnosed with ADHD and characterized by impulsive aggression that is not controlled by optimal stimulant and psychosocial treatment. It was a dose finding study with the primary objective of identifying an effective dose range in children of different weight or age groups. The children were divided into two […] (i.e., less than 30 kg and greater than or equal to 30 kg). The low, medium, and high doses for the under 30 kg group were 12 mg, 24 mg, and 36 mg, respectively. Similarly, the low, medium, and high doses for the 30 kg and over group were 18 mg, 36 mg, and 54 mg, respectively. Three doses of molindone were studied with the primary endpoints of (a) effect in reducing impulsive aggression (measured with change in the score of the Retrospective-Modified Overt Aggression Scale “R-MOAS” at the end of the study from the baseline), and (b) rate of remission of aggression, after at least three weeks of treatment. Secondary objectives included safety and tolerability of molindone as well as the effect on the Clinical Global Impression and the Oppositional […] Disorder subscale score of the SNAP-IV Questionnaire and other endpoints [e.g., SNAP, clinical labs, AEs, etc.]. Patients who completed the study were offered the opportunity to continue into an open-label phase of six months duration.
# [2] = system: impulsive aggression in ADHD patients; assay: Phase IIb study, rate of remission of aggression (R-MOAS ≦ 10); conditions: for Remission Rate at End of Study (Visit 10): R-MOAS ≦ 10, LOCF
# Method: as §1
# [3] = Phase IIb study, safety and tolerability; conditions: throughout the study, across all doses
# Method: A Phase IIb study was conducted for the treatment of impulsive aggression in Attention Deficit and Hyperactivity Disorder (ADHD) patients with a pharmaceutical preparation of molindone. The study was a multi-center randomized, double-blind, placebo controlled clinical trial in children 6 to 12 diagnosed with ADHD and characterized by impulsive aggression that is not controlled by optimal stimulant and psychosocial treatment. It was a dose finding study with the primary objective of identifying an effective dose range in children of different weight or age groups. The children were divided into two […] (i.e., less than 30 kg and greater than or equal to 30 kg). The low, medium, and high doses for the under 30 kg group were 12 mg, 24 mg, and 36 mg, respectively. Similarly, the low, medium, and high doses for the 30 kg and over group were 18 mg, 36 mg, and 54 mg, respectively. Three doses of molindone were studied with the primary endpoints of (a) effect in reducing impulsive aggression (measured with change in the score of the Retrospective-Modified Overt Aggression Scale “R-MOAS” at the end of the study from the baseline), and (b) rate of remission of aggression, after at least three weeks of treatment. Secondary objectives included safety and tolerability of molindone as well as the effect on the Clinical Global Impression and the Oppositional […] […]
structure (smiles),measurement,setting,value
CCc1c(C)[nH]c2c1C(=O)C(CN1CCOCC1)CC2 (stereo not drawn) [molindone],efficacy across any of the measures,"[1]; 30 kg or more, high dose (54 mg)",did not show efficacy
same,"R-MOAS (LOCF) Change from Baseline, mean (SD)","[1]; <30 kg, high dose (36 mg)",−16.4 (36.90)
same,"R-MOAS (LOCF) End of treatment (visit 10), mean (SD)","[1]; <30 kg, high dose (36 mg)",32.2 (24.14)
same,"R-MOAS (LOCF) Change from Baseline, mean (SD)","[1]; <30 kg, low dose (12 mg)",−25.1 (23.00)
same,"R-MOAS (LOCF) End of treatment (visit 10), mean (SD)","[1]; <30 kg, low dose (12 mg)",34.2 (27.29)
same,"R-MOAS (LOCF) Change from Baseline, mean (SD)","[1]; <30 kg, medium dose (24 mg)",−30.7 (31.22)
same,"R-MOAS (LOCF) End of treatment (visit 10), mean (SD)","[1]; <30 kg, medium dose (24 mg)",38.5 (36.70)
same,statistical significance vs placebo on the R-MOAS endpoint,"[1]; patients under 30 kg, the studied doses (12, 24, 36 mg)",did not show statistical significance
same,"R-MOAS (LOCF) Change from Baseline, mean (SD)","[1]; ≧30 kg, high dose (54 mg)",−23.0 (27.55)
same,"R-MOAS (LOCF) End of treatment (visit 10), mean (SD)","[1]; ≧30 kg, high dose (54 mg)",28.8 (40.60)
same,"R-MOAS (LOCF) Change from Baseline, mean (SD)","[1]; ≧30 kg, low dose (18 mg)",−41.7(32.48)
same,"R-MOAS (LOCF) End of treatment (visit 10), mean (SD)","[1]; ≧30 kg, low dose (18 mg)",9.8 (13.01)
same,"R-MOAS (LOCF) Change from Baseline, mean (SD)","[1]; ≧30 kg, medium dose (36 mg)",−40.9(34.84)
same,"R-MOAS (LOCF) End of treatment (visit 10), mean (SD)","[1]; ≧30 kg, medium dose (36 mg)",13.5(15.71)
same,"Remission, Treatment vs Placebo Odds Ratio","[2]; <30 kg, high dose (36 mg)",0.62
same,"Remission, Treatment vs Placebo Odds Ratio","[2]; <30 kg, low dose (12 mg)",1.53
same,"Remission, Treatment vs Placebo Odds Ratio","[2]; <30 kg, medium dose (24 mg)",1.36
same,Remission Rate at End of Study (Visit 10),"[2]; <30 kg, high dose (36 mg)",3 (21.4) n(%)
same,Remission Rate at End of Study (Visit 10),"[2]; <30 kg, low dose (12 mg)",4 (33.3) n(%)
same,Remission Rate at End of Study (Visit 10),"[2]; <30 kg, medium dose (24 mg)",4 (26.7) n(%)
same,Remission Rate at End of Study (Visit 10),"[2]; ≧30 kg, high dose (54 mg)",7 (41.2) n(%)
same,Remission Rate at End of Study (Visit 10),"[2]; ≧30 kg, low dose (18 mg)",10 (66.7) n(%)
same,Remission Rate at End of Study (Visit 10),"[2]; ≧30 kg, medium dose (36 mg)",8 (53.3) n(%)
same,"Remission, Treatment vs Placebo Odds Ratio","[2]; ≧30 kg, high dose (54 mg)",4.07
same,"Remission, Treatment vs Placebo Odds Ratio","[2]; ≧30 kg, low dose (18 mg)",12.08
same,"Remission, Treatment vs Placebo Odds Ratio","[2]; ≧30 kg, medium dose (36 mg)",7.07
same,tolerability,[3],well tolerated

# Source: US20140135326A1, “METHOD OF TREATMENT OF AGGRESSION” (Supernus Pharmaceuticals, Inc., priority 2012, published 2014)
